The target of this test is T1, CFTR (Homo sapiens, UniProt P13569, DEL508-508).
T1 construct: Primary CF airway epithelial cells were obtained from the UNC Cystic Fibrosis Tissue Procurement and Cell Culture Core; host or cells: primary CF airway epithelial cells
The experiment in a line: Equivalent current assay in Primary CF airway epithelial cells (NAUC). The format is cell-based. As to conditions: 24 h, normalized to VX809 (3 μM) positive control; for Nauc @ 3 μM: 3 μM test compound; for Nauc @ 10 μM: 10 μM test compound. As for the experimental part: Primary CF airway epithelial cells were obtained from the UNC Cystic Fibrosis Tissue Procurement and Cell Culture Core. The cells are grown at 37° C. in a Heracell 150i incubator using growth media (BEGM, Fischer). Cells were then transferred to differentiation media (ALI, UNC) for a minimum of 4 weeks on coated Costar snapwells. Two days before the Ussing assay the mucus on the apical surface of the cells was aspirated after incubating with 200 μL of differentiation Media for at least thirty (30) minutes. One day before the Ussing assay test compounds were added to the basolateral surface of the cells at various test concentrations dissolved in DMSO. Duplicate wells were prepared giving a n=3 or n=4 protocol.
Cells were treated for 24 hours with various combinations and concentrations of the test articles, reference standard (3 μM VX809, positive control). Compounds stock solutions were prepared in DMSO and diluted 1/1000 into ALI media to their final assay concentration. Cells were treated with combination solutions (2 mL of each dilution) and incubated at 37° C. for 24 h.
For the equivalent current assay, cells on four Transwell (24-well) plates were treated. Each Transwell plate was filled with 200 μl of HBS on the apical surface and 2 ml on the basolateral surface. Plates were placed horizontally in a heated mount at 37° C., and equilibrated for several minutes. Resting current was measured for 15 min and then blocked by the apical addition of 5 μM benzamil. After 20 min, 10 μM forskolin and 1 μM VX770 were added to both the apical and basolateral side to stimulate CFTR. An increase in chloride current is seen as an upward deflection of the trace. After another 30 min, CFTR-172 (a CFTR inhibitor, 20 μM) and/or bumetanide (20 uM) was added to block CFTR mediated chloride current.
The raw data, current vs. time for the Ussing chamber (sampling interval: 10 s) and voltage vs. time and resistance vs. time for the equivalent current assay (sampling interval: 5 minutes) were transferred to Excel (Microsoft Office Professional, version 14.0.7106.5003) for analysis. CFTR specific current was measured as the average amplitude of the increase in current elicited upon addition forskolin and ending upon addition of the CFTR channel specific blocker CFTR-172. This average is equivalent to the sum of the average forskolin activated and the average VX770-potentiated currents. The average current measured in vehicle (0.1% DMSO) treated cells, Iv, was subtracted from the current for the test article, ITA, or from the corrector reference standard VX809 (3 uM ISTD. For replicate measurements, the average vehicle subtracted response for the test article, was normalized to the average vehicle subtracted inhibitor response of the reference corrector VX809 (3 μM). INSC=(ITA−IV)(ave)/(ISTD−IV)(ave) (Equation 1)
A second endpoint, for the equivalent current assay, evaluated was NAUC, the normalized area under the curve (AUC) measuring the response after addition of forskolin and VX770 to the time point right before the addition of the CFTR inhibitor. The AUC is effectively the average response multiplied by the duration of the response. The AUC of the test article, AUCTA was then corrected by subtracting the average vehicle response, AUCV,ave over the same time range, and normalized as for the inhibitor-sensitive current to the difference of the corrector reference standard VX809 (3 μM VX809r,ave and the vehicle response: NAUCTA=[AUCTA−AUCV,ave]/[AUCVx809r,ave−AUCV,ave] (Equation 2).
The normalized value for DMSO is 0.0 and for VX-809 alone is 1.0. Combinations of compounds with VX-809 that give normalized values greater than 1.0 show activity in the combination assay. A value of 2 means the test compound doubles the effect to VX-809 alone.
Experiments were run with a minimum of n=4 replicates per concentration. […]

T1 sequence (P13569 with tags, fused parts or gaps DEL508-508): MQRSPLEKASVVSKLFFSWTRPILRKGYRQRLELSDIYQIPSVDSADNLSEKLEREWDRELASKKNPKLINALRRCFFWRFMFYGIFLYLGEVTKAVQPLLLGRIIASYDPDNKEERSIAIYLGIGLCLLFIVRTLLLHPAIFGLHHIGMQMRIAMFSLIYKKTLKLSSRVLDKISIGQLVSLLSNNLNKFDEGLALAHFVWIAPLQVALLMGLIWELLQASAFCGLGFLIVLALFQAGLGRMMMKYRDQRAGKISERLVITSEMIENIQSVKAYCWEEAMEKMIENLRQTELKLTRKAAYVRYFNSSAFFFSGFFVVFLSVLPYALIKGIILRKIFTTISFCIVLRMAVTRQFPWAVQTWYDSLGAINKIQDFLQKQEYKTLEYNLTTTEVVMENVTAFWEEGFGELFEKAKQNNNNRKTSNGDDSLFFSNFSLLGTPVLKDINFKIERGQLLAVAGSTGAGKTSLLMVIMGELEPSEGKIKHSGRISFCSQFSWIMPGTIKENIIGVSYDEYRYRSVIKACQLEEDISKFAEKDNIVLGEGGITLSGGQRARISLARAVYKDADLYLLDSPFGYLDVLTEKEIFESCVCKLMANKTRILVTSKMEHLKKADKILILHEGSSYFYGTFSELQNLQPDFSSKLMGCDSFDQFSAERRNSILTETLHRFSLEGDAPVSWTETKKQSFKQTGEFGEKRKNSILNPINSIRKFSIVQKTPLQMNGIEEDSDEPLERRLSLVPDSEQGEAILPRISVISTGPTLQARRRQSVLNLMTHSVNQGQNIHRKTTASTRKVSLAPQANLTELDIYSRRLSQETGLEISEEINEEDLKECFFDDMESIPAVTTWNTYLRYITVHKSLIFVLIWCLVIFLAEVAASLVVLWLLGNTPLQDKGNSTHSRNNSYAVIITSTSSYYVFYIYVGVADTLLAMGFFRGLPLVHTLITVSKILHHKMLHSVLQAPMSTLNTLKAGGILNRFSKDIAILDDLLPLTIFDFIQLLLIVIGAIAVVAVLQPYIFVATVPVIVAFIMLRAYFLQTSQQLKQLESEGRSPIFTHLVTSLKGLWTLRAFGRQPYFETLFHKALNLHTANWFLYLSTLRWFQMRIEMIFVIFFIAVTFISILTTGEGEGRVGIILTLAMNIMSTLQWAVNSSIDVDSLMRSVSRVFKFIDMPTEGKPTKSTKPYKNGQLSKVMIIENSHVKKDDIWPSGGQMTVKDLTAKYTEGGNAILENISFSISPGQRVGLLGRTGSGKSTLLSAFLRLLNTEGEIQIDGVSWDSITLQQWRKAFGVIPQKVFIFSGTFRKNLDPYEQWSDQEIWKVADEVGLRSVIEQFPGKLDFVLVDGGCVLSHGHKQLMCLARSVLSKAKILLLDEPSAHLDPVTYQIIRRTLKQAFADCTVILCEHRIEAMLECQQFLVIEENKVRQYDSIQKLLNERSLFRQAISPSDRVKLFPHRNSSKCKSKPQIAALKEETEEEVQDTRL

`O=C1C2C3C[C@H](Cl)CN3C3(C(=O)Nc4c(Cl)cc(Cl)cc43)C2C(=O)N1c1cc(Cl)cc(Cl)n1` (stereo partly drawn) [Example 65]: the “Nauc @ 3 μM” value was “++ (NAUC “++” refers to an observed NAUC 170-140% of positive control)” and the “Nauc @ 10 μM” value is “+++ (NAUC “+++” refers to an observed NAUC >170% of positive control)”.

Take `CC1(C)CC2C3C(=O)N(c4cc(Cl)cc(Cl)c4)C(=O)C3C3(C(=O)Nc4c(Cl)cc(Cl)cc43)N2C1` (single isomer, unassigned) [Example 119]: the “Nauc @ 3 μM” value is “+++ (NAUC “+++” refers to an observed NAUC >170% of positive control)” and the “Nauc @ 10 μM” value is reported as “+++ (NAUC “+++” refers to an observed NAUC >170% of positive control)”.

With `O=C1[C@H]2[C@H]3C[C@H](O)CN3[C@]3(C(=O)Nc4c(Cl)cc(Cl)cc43)[C@H]2C(=O)N1c1cc(Cl)cc(Cl)c1` (single isomer, unassigned) [Example 2], the “Nauc @ 3 μM” value was “+++ (NAUC “+++” refers to an observed NAUC >170% of positive control)” and the “Nauc @ 10 μM” value was “+++ (NAUC “+++” refers to an observed NAUC >170% of positive control)”.

Take `COc1c(Cl)cc(N2C(=O)C3C4CC(C)(C)CN4C4(C(=O)Nc5c(Cl)cc(Cl)cc54)C3C2=O)cc1Cl` (single isomer, unassigned) [Example 4, 5,7-dichloro-2′-(3,5-dichloro-4-methoxyphenyl)-7′,7′-dimethyl-3a′,6′,7′,8′,8a′,8b′-hexahydro-1′H-spiro[indoline-3,4′-pyrrolo[3,4-a]pyrrolizine]-1′,2,3′(2′H)-trione]: the “Nauc @ 3 μM” value is recorded as “+++ (NAUC “+++” refers to an observed NAUC >170% of positive control)” and the “Nauc @ 10 μM” value is recorded as “++ (NAUC “++” refers to an observed NAUC 170-140% of positive control)”.

As for `COc1cc(Cl)cc(N2C(=O)C3C4C[C@H](F)CN4C4(C(=O)Nc5c(Cl)cc(Cl)cc54)C3C2=O)c1` (single isomer, unassigned) [Example 6, (7′S)-5,7-Dichloro-2′-(3-chloro-5-methoxyphenyl)-7′-fluoro-3a′,6′,7′,8′,8a′,8b′-hexahydro-1′H-spiro[indoline-3,4′-pyrrolo[3,4-a]pyrrolizine]-1′,2,3′(2′H)-trione], the “Nauc @ 3 μM” value was “+++ (NAUC “+++” refers to an observed NAUC >170% of positive control)” and the “Nauc @ 10 μM” value was “+++ (NAUC “+++” refers to an observed NAUC >170% of positive control)”.

As for `O=C1C2C(Cc3ccccc3OC(F)(F)F)NC3(C(=O)Nc4c(Cl)cc(Cl)cc43)C2C(=O)N1c1cc(Cl)cc(Cl)c1` (stereo not drawn) [Example 222], the “Nauc @ 3 μM” value is on record as “+++ (NAUC “+++” refers to an observed NAUC >170% of positive control)” and the “Nauc @ 10 μM” value was “++ (NAUC “++” refers to an observed NAUC 170-140% of positive control)”.

As for `Cc1cccc2c1NC(=O)C21C2C(=O)N(c3cc(Cl)cc(Cl)c3)C(=O)C2C2CCCN21` (stereo not drawn) [Example 12], the “Nauc @ 3 μM” value is “+ (NAUC “+” refers to an observed NAUC <140% of positive control)” and the “Nauc @ 10 μM” value is “++ (NAUC “++” refers to an observed NAUC 170-140% of positive control)”.

In the case of `COc1cc(Cl)cc(N2C(=O)C3C4C[C@H](O)CN4C4(C(=O)Nc5c(Cl)cc(Cl)cc54)C3C2=O)c1` (stereo partly drawn) [Example 74], the “Nauc @ 3 μM” value is on record as “+++ (NAUC “+++” refers to an observed NAUC >170% of positive control)” and the “Nauc @ 10 μM” value was “+++ (NAUC “+++” refers to an observed NAUC >170% of positive control)”.

`O=C1C2C3CCCN3C3(C(=O)Nc4c(Cl)cc(Cl)cc43)C2C(=O)N1c1cc(Cl)cc(Cl)n1` (single isomer, unassigned) [Example 3, 5,7-Dichloro-2′-(4,6-dichloropyridin-2-yl)-3a′,6′,7′,8′,8a′,8b′-hexahydro-1′H-spiro[indoline-3,4′-pyrrolo[3,4-a]pyrrolizine]-1′,2,3′(2′H)-trione]: the “Nauc @ 3 μM” value is “+++ (NAUC “+++” refers to an observed NAUC >170% of positive control)” and the “Nauc @ 10 μM” value is listed as “+++ (NAUC “+++” refers to an observed NAUC >170% of positive control)”.

`C[C@]1(OCc2ccccc2)CC2C3C(=O)N(c4cc(Cl)cc(Cl)c4)C(=O)C3C3(C(=O)Nc4c(Cl)cc(Cl)cc43)N2C1` (single isomer, unassigned) [Example 240]: the “Nauc @ 3 μM” value is recorded as “+++ (NAUC “+++” refers to an observed NAUC >170% of positive control)” and the “Nauc @ 10 μM” value is on record as “+ (NAUC “+” refers to an observed NAUC <140% of positive control)”.

As for `CC12C(=O)N(c3cc(Cl)cc(Cl)c3)C(=O)C1C1(C(=O)Nc3c(Cl)cc(Cl)cc31)N1CCCC12` (stereo not drawn) [Example 44], the “Nauc @ 3 μM” value is “++ (NAUC “++” refers to an observed NAUC 170-140% of positive control)” and the “Nauc @ 10 μM” value is reported as “+ (NAUC “+” refers to an observed NAUC <140% of positive control)”.

Consider `[2H]C12C(=O)N(c3cc(Cl)cc(Cl)c3)C(=O)C1([2H])C1(C(=O)Nc3c(Cl)cc(Cl)cc31)N1C[C@@H](O)CC12` (stereo partly drawn) [Example 64], for which the “Nauc @ 3 μM” value was “+ (NAUC “+” refers to an observed NAUC <140% of positive control)” and the “Nauc @ 10 μM” value is on record as “++ (NAUC “++” refers to an observed NAUC 170-140% of positive control)”.

`[2H]C12C(=O)N(c3cc(Cl)c(OC)c(Cl)c3)C(=O)C1([2H])C1(C(=O)Nc3c(Cl)cc(Cl)cc31)N1C[C@@H](Cl)CC12` (stereo partly drawn) [Example 148]: the “Nauc @ 3 μM” value is listed as “+++ (NAUC “+++” refers to an observed NAUC >170% of positive control)” and the “Nauc @ 10 μM” value is given as “+++ (NAUC “+++” refers to an observed NAUC >170% of positive control)”.

For `O=C1C2C3CCCN3C3(C(=O)Nc4c(Cl)cc(Cl)cc43)C2C(=O)N1c1cc(Cl)cc(Br)c1` (stereo not drawn) [Example 35], the “Nauc @ 3 μM” value is “+ (NAUC “+” refers to an observed NAUC <140% of positive control)” and the “Nauc @ 10 μM” value is listed as “+++ (NAUC “+++” refers to an observed NAUC >170% of positive control)”.

With `O=C1C2C3CCCN3C3(C(=O)Nc4c(Cl)cc(Cl)cc43)C2C(=O)N1c1nccs1` (stereo not drawn) [Example 216], the “Nauc @ 3 μM” value is on record as “++ (NAUC “++” refers to an observed NAUC 170-140% of positive control)” and the “Nauc @ 10 μM” value is recorded as “+ (NAUC “+” refers to an observed NAUC <140% of positive control)”.

As to `C[C@]1(OCc2ccccc2)CC2C3C(=O)N(c4cc(Cl)cc(Cl)c4)C(=O)C3C3(C(=O)Nc4c(Cl)cc(Cl)cc43)N2C1` (single isomer, unassigned) [Example 241], the “Nauc @ 3 μM” value was “+++ (NAUC “+++” refers to an observed NAUC >170% of positive control)” and the “Nauc @ 10 μM” value was “+++ (NAUC “+++” refers to an observed NAUC >170% of positive control)”.

Turning to `[2H]C([2H])([2H])C1(C([2H])([2H])[2H])CC2C3C(=O)N(c4cc(Cl)c(OC)c(Cl)c4)C(=O)C3C3(C(=O)Nc4c(Cl)cc(Cl)cc43)N2C1` (stereo not drawn) [Example 214], the “Nauc @ 3 μM” value is reported as “+++ (NAUC “+++” refers to an observed NAUC >170% of positive control)” and the “Nauc @ 10 μM” value is “+++ (NAUC “+++” refers to an observed NAUC >170% of positive control)”.

In the case of `O=C1C2CN(c3ccccc3)C3(C(=O)Nc4c(Cl)cc(Cl)cc43)C2C(=O)N1c1cc(Cl)cc(Cl)c1` (stereo not drawn) [Example 209], the “Nauc @ 3 μM” value is recorded as “+ (NAUC “+” refers to an observed NAUC <140% of positive control)” and the “Nauc @ 10 μM” value is recorded as “+++ (NAUC “+++” refers to an observed NAUC >170% of positive control)”.

For the origin of these results see patent US10072017B2, “Compounds and methods for the treatment of cystic fibrosis” (Flatley Discovery Lab, LLC, priority 2015, dated 2018).
